# Patent US20200163984A1, “USE OF ISOVALERYL SPIRAMYCIN I, II AND/OR III IN MANUFACTURING MEDICAMENT FOR TREATING AND/OR PREVENTING TUMOR, AND MEDICAMENT” (SHENYANG FUYANG PHARMACEUTICAL TECHNOLOGY CO., LTD., priority 2017, published 2020)
# Columns and labels:
# [1] = test system: transplanted tumor of human thyroid cancer cell TPC-1; test: TPC-1 transplanted tumor in nude mice
# Experimental: Then cell concentration was adjusted to 1×10^7/ml with matrigel, then each nude mouse was inoculated subcutaneously with 0.2 ml of cells at its right armpit and recorded as the first day of inoculation. When the tumor grows to be greater than or equal to 100 mm^3, the mice were randomly divided into 11 groups with 6 mice in each group: isovaleryl spiramycin I groups with doses of 25, 50 and 100 mg/kg, isovaleryl spiramycin II groups with doses of 25, 50 and 100 mg/kg, and isovaleryl spiramycin III groups with doses of 25, 50 and 100 mg/kg. Each group was continuously administered intragastrically for 30 days with a dose of 20 ml/kg. The mice were sacrificed the next day after drug withdrawal and the indicators were tested. The long diameter and short diameter of the tumor, and the body weight of each mouse were recorded every 3 days from drug administration to nude mouse sacrifice.
# The body weight of the nude mice and the long diameter (a) and short diameter (b) of the transplanted tumor were measured every 3 days, and the tumor volume (v), relative tumor volume (RTV) and relative tumor proliferation rate (T/C) are calculated respectively according to the following formulas, wherein V=a×b^2/2; RTV=V/V0 (V0 is the tumor volume before administration, V is the tumor volume before sacrifice), and T/C (%)=treatment group RTV/model control group RTV×100%.
# Each mouse was weighed and sacrificed. After the tumor was completely stripped off from the body of the mouse, the non-tumor tissues such as blood stains and fat were removed to weigh the tumor and calculate the tumor growth inhibition rate. The average tumor weight of each group of mice is used as an indicator of efficacy. Tumor growth inhibition rate (%)=(1−the average tumor weight of the treatment group/the average tumor weight of the model group)×100%.
# [2] = Thymus index and spleen index of H22 liver cancer tumor-bearing mice
# Experimental: (§1) In the H22 liver cancer model, the mice inoculated with the tumor were randomly divided into groups with 10 mice in each group on the next day of inoculation. The groups included: a model control group, a positive drug cyclophosphamide control group (CTX, 26 mg/kg), isovaleryl spiramycin I groups with doses of 13, 26 and 52 mg/kg; isovaleryl spiramycin II groups with doses of 13, 26 and 52 mg/kg; isovaleryl spiramycin III groups with doses of 13, 26 and 52 mg/kg. Each group was continuously administered intragastrically for 7 days with a dose of 20 ml/kg.
# [3] = test system: spleen lymphocytes (ConA, LPS stimulation); test: Spleen lymphocyte proliferation activity of Lewis lung cancer tumor-bearing mice; format: in vivo, C57BL/6 mouse; conditions: for lymphocyte activity compared with the control group: Lewis tumor-bearing mice; for B Lymphocyte Proliferation Activity (%) / T Lymphocyte Proliferation Activity (%): n = 6
# Experimental: as §1, with “the Lewis lung” for “the H22 liver”, “group” for “group on”, “(CTX, 30” for “(CTX, 26”, “for 15” for “for 7”
# The serum-free RPMI 1640 medium was placed in a dish, and then the dish was placed on ice. The spleen was aseptically taken and gently ground with a sterile glass slide to prepare a single cell suspension. The single cell suspension was filtered with a double-layer sterile gauze, washed twice with serum-free RPMI1640 medium, and centrifuged at 1,500 rpm for 5 min to remove the obtained supernatant. 2 mL of red blood cell lysate was added to the treated suspension, the mixture was allowed to stand for 2 min, and then 8 mL of RPMI 1640 medium was added, centrifuging was performed at 1,500 rpm for 5 min to remove the obtained supernatant, and then washing was performed twice with the RPMI 1640 medium. […] A single cell suspension was prepared by using a RPMI 1640 medium containing 10% fetal bovine serum.
# The spleen cell suspension was taken, and the cell density was adjusted to 1×10^7/mL. Each mouse was set with: A. a control well: 100 μL of RPMI 1640 medium was added; B. a concanavalin A (ConA) stimulation well: 100 μL (10 mg/L) of concanavalin A (ConA) solution was added; and C. a bacterial endotoxin (LPS) stimulating well: 100 μL (20 mg/L) of bacterial endotoxin (LPS) solution was added. The above cells were added to a 96-well plate, and then 100 μL of spleen cell suspension was added to each of the above wells. After the culture plate was transferred to a saturated humidity condition with a volume fraction of 5% CO2 at 37° C. for incubation for 72 h, 10 μL of MTT solution (5 g/L) was added to each well, and incubation was continued to be performed for 4 hours under the same conditions, then the culture was terminated. 100 μl of a triple solution (SDS 10 g, 10M HCl 0.1 mL, […] 5 mL, diluted with distilled water to 100 mL) was added, and the plate was shaken for 10 min to fully dissolve the crystals. The Optical Density (OD) of each well was measured at 570 nm, and the lymphocyte proliferation rate was calculated. Lymphocyte proliferation rate (%)=[(T-C)/C]×100%, wherein T was the Optical Density of the stimulation well, and C is the Optical Density of the control well.
# [4] = TPC-1, high dose (100 mg/kg in method) i.g. 30 days
# [5] = TPC-1, low dose (25 mg/kg in method) i.g. 30 days
# [6] = TPC-1, medium dose (50 mg/kg in method) i.g. 30 days
structure (smiles),measurement,setting,value
"CCC(=O)O[C@@H]1CC(=O)O[C@H](C)C/C=C/C=C/[C@H](O[C@H]2CC[C@H](N(C)C)[C@@H](C)O2)[C@H](C)C[C@H](CC=O)[C@H](O[C@@H]2O[C@H](C)[C@@H](O[C@H]3C[C@@](C)(O)[C@@H](OC(=O)CC(C)C)[C@H](C)O3)[C@H](N(C)C)[C@H]2O)[C@H]1OC [Isovaleryl spiramycin III, isovaleryl spiramycin III]",Relative Tumor Proliferation Rate (T/C),[1]; [4],34.75%
same,tumor growth inhibition rate,[1]; [4],62.94%
same,Relative Tumor Proliferation Rate (T/C),[1]; [5],61.93%
same,tumor growth inhibition rate,[1]; [5],39.06%
same,tumor volume and relative tumor volume compared with the model group,"[1]; TPC-1, low, medium and high doses, P<0.05",significantly lower
same,Relative Tumor Proliferation Rate (T/C),[1]; [6],45.01%
same,tumor growth inhibition rate,[1]; [6],60.25%
same,Inhibition Rate (%),[1]; dose 25 mg/kg,39.06%
same,Relative Tumor Proliferation Rate (T/C),[1]; dose 25 mg/kg,61.93%
same,Relative Tumor Volume (RTV),[1]; dose 25 mg/kg,10.19 ± 2.79
same,Tumor Weight,[1]; dose 25 mg/kg,1.47 ± 0.44 g
same,Tumor Volume (mm3) (d 1),"[1]; dose 25 mg/kg, d 1",119.35 ± 3.84 mm3
same,Tumor Volume (mm3) (d30),"[1]; dose 25 mg/kg, d 30",1210.76 ± 295.50 mm3
same,Inhibition Rate (%),[1]; dose 50 mg/kg,60.25%
same,Relative Tumor Proliferation Rate (T/C),[1]; dose 50 mg/kg,45.01%
same,Relative Tumor Volume (RTV),[1]; dose 50 mg/kg,7.41 ± 2.51
same,Tumor Weight,[1]; dose 50 mg/kg,0.96 ± 0.43 g
same,Tumor Volume (mm3) (d 1),"[1]; dose 50 mg/kg, d 1",116.75 ± 5.22 mm3
same,Tumor Volume (mm3) (d30),"[1]; dose 50 mg/kg, d 30",866.73 ± 306.25 mm3
same,Inhibition Rate (%),[1]; dose 100 mg/kg,62.94%
same,Relative Tumor Proliferation Rate (T/C),[1]; dose 100 mg/kg,34.75%
same,Relative Tumor Volume (RTV),[1]; dose 100 mg/kg,5.72 ± 3.04
same,Tumor Weight,[1]; dose 100 mg/kg,0.90 ± 0.44 g
same,Tumor Volume (mm3) (d 1),"[1]; dose 100 mg/kg, d 1",115.43 ± 7.58 mm3
same,Tumor Volume (mm3) (d30),"[1]; dose 100 mg/kg, d 30",654.78 ± 338.68 mm3
same,mouse weight compared with the model group,"[1]; mouse, in vivo",no significant changes
same,Body Weight (g) (d1),"[1]; mouse, in vivo, 25 mg/kg",21.13 ± 1.48 g
same,Body Weight (g) (d30),"[1]; mouse, in vivo, 25 mg/kg",23.49 ± 1.02 g
same,Body Weight (g) (d1),"[1]; mouse, in vivo, 50 mg/kg",21.43 ± 1.85 g
same,Body Weight (g) (d30),"[1]; mouse, in vivo, 50 mg/kg",24.06 ± 1.71 g
same,Body Weight (g) (d1),"[1]; mouse, in vivo, 100 mg/kg",20.76 ± 2.13 g
same,Body Weight (g) (d30),"[1]; mouse, in vivo, 100 mg/kg",23.72 ± 1.60 g
same,Spleen Index (%),[2]; dose 13 mg/kg,0.68 ± 0.15%
same,Thymus Index (%),[2]; dose 13 mg/kg,0.15 ± 0.06%
same,Spleen Index (%),[2]; dose 26 mg/kg,0.66 ± 0.21%
same,Thymus Index (%),[2]; dose 26 mg/kg,0.15 ± 0.05%
same,Spleen Index (%),[2]; dose 52 mg/kg,0.65 ± 0.26%
same,Thymus Index (%),[2]; dose 52 mg/kg,0.13 ± 0.02%
same,lymphocyte activity compared with the control group,"[3]; 13, 26 and 52 mg/kg, P<0.05, P<0.01",significantly increase
same,B Lymphocyte Proliferation Activity (%),[3]; dose 13 mg/kg,33.91 ± 2.65%
same,T Lymphocyte Proliferation Activity (%),[3]; dose 13 mg/kg,20.17 ± 5.18%
same,B Lymphocyte Proliferation Activity (%),[3]; dose 26 mg/kg,34.69 ± 0.34%
same,T Lymphocyte Proliferation Activity (%),[3]; dose 26 mg/kg,18.51 ± 2.60%
same,B Lymphocyte Proliferation Activity (%),[3]; dose 52 mg/kg,32.28 ± 1.27%
same,T Lymphocyte Proliferation Activity (%),[3]; dose 52 mg/kg,18.25 ± 1.89%
"O=P1(N(CCCl)CCCl)NCCCO1 (centres unmarked) [Cyclophosphamide, cyclophosphamide, reference compound]",Inhibition Rate (%),[1]; dose 30 mg/kg,71.29%
same,Relative Tumor Proliferation Rate (T/C),[1]; dose 30 mg/kg,37.40%
same,Relative Tumor Volume (RTV),[1]; dose 30 mg/kg,6.16 ± 2.29
same,Tumor Weight,[1]; dose 30 mg/kg,0.69 ± 0.37 g
same,Body Weight (g) (d1),"[1]; dose 30 mg/kg, d 1",21.56 ± 1.54 g
same,Tumor Volume (mm3) (d 1),"[1]; dose 30 mg/kg, d 1",117.10 ± 4.88 mm3
same,Body Weight (g) (d30),"[1]; dose 30 mg/kg, d 30",19.16 ± 1.75 g
same,Tumor Volume (mm3) (d30),"[1]; dose 30 mg/kg, d 30",724.64 ± 285.14 mm3
same,thymus index and spleen index compared with the control group,"[2]; H22 tumor-bearing mice, cyclophosphamide, P<0.01",significantly lower
same,Spleen Index (%),[2]; dose 26 mg/kg,0.38 ± 0.09 %
same,Thymus Index (%),[2]; dose 26 mg/kg,0.04 ± 0.02 %
same,lymphocyte activity compared with the control group,"[3]; cyclophosphamide, P<0.05",significantly inhibited
same,B Lymphocyte Proliferation Activity (%),[3]; dose 26 mg/kg,11.63 ± 4.68 %
same,T Lymphocyte Proliferation Activity (%),[3]; dose 26 mg/kg,13.24 ± 3.72 %
